Measured values as given in article PMC9855884, “Glycosylated Lipopeptides—Synthesis and Evaluation of Antimicrobial Activity and Cytotoxicity” (Biomolecules, 2023).
Values after ≈ are worked out from the molar mass of the structure shown. Where a SMILES comes first, the peptide text is derived from it. The star is where a group is joined. βGlcNAc = CC(=O)N[C@@H]1[C@@H](O)[C@H](O)[C@@H](CO)O[C@H]1*; Palmitoyl = CCCCCCCCCCCCCCCC(=O)*; Myristoyl = CCCCCCCCCCCCCC(=O)*

Legend:
E. faecium ATCC 700221 = format: cell-based, Enterococcus faecium; conditions: ATCC 700221, 18 h
Procedure: (§1) The Acinetobacter baumannii ATCC BAA-1605, Enterococcus faecium ATCC 700221, Klebsiella aerogenes ATCC 13048, Klebsiella pneumoniae ATCC 700603, Pseudomonas aeruginosa ATCC 9027, Staphylococcus aureus ATCC 33591, Candida glabrata ATCC 15126, strains were acquired from the American Type Culture Collection (ATCC). All the strains were stored at −80 °C in Roti-Store cryo vials and were transferred into fresh Mueller–Hinton broth (MHB, Becton Dickinson, Warsaw, Poland) for bacteria or RPMI-1640 (Sigma-Aldrich, Steinheim, Germany) for fungi before the tests and incubated for 24 h at 37 °C. Then, the cultures were seeded on the Mueller–Hinton agar (BioMaxima, Lublin, Poland) or Sabouraud dextrose agar (SDA, BioMaxima, Lublin, Poland) plates, respectively, and incubated as just mentioned. These agar cultures were used for further microbiological assays. Cell densities for all assays were adjusted spectrophotometrically (Multiskan GO Microplate Spectrophotometer, Thermo Fisher Scientific, Vantaa, Finland) at 600 and 530 nm for bacteria and fungi, respectively.
(§2) The MICs were determined using a broth microdilution method according to the Clinical and Laboratory Standard Institute guidelines. For this purpose, initial inoculums of bacteria (5 × 10^5 CFU/mL) in MHB and yeasts (2 × 10^3 CFU/mL) in RPMI-1640 with 2% D-glucose were exposed to the ranging concentration of lipopeptides (1–512 μg/mL) and incubated at 37 °C for 18 h and 24 h, respectively. The experiments were conducted on 96-well microtiter polystyrene plates (Kartell, Italy). The growth was assessed visually after incubation and the MIC was assumed as the lowest peptide concentration at which a noticeable growth of microorganisms was inhibited. All experiments were conducted in triplicate.

S. aureus ATCC 33591 = format: cell-based, Staphylococcus aureus; conditions: ATCC 33591, 18 h
Procedure: as §1, §2

P. aeruginosa ATCC 9027 = format: cell-based, Pseudomonas aeruginosa; conditions: ATCC 9027, 18 h
Procedure: as §1, §2

C. glabrata ATCC 15126 = format: cell-based, Candida glabrata; conditions: ATCC 15126, 24 h
Procedure: as §1, §2

[1] = tested on: human red blood cells (RBCs); experiment: Hemolysis assay; format: cell-based; conditions: human RBCs 4% (v/v) in PBS, 60 min, 37 °C, absorbance 540 nm, 1–512 µg/mL; triplicate
Procedure: The hemolysis assay was conducted using a procedure described previously. For this purpose, fresh human red blood cells (RBCs) with EDTA anticoagulant were washed three times with phosphate-buffer saline (PBS) using centrifugation at 800× g for 10 min and resuspended in PBS. Then, the stock solution of RBCs was added to serial dilution of peptides on 96-well polystyrene plates to reach a final volume of 100 µL with 4% concentration of erythrocytes (v/v) over the concentration range of 1–512 µg/mL of the tested compounds. The control wells for the 0% and 100% hemolysis consisted of RBCs suspended in PBS and 1% of Triton X–100, respectively. Subsequently, the plates were incubated for 60 min at 37 °C and then centrifuged at 800× g for 10 min at 4 °C (Sorvall ST 16R Centrifuge, Thermo Scientific, Osterode am Harz, Germany). After centrifugation, the supernatant was carefully […] to new microtiter plates and the release of hemoglobin was monitored through absorbance measurements at 540 nm (Multiskan™ GO Microplate Spectrophotometer, Thermo Scientific). All experiments were conducted in triplicate.
The lipopeptides were tested against human erythrocytes in order to evaluate their hemolytic activity. Moreover, selectivity indexes (SI) were calculated by dividing the HC50 by MIC. […] In some cases, glycosylation led to suppressed toxicity, e.g., a comparison of C14 peptides analogs: 1–3 and 10–12. On the other hand, an increase in toxicity of C18 analogs (7–9 vs. 16–18) was found for glycosylated USCLs. For this reason, SI was calculated to provide a correlation between antimicrobial activity and toxicity. […] Among gUSCLs: 10 and 11 with C14 fatty acid and 16–18 should be highlighted owing to their high selectivity against E. fecium and C. glabrata.

| MIC (E. faecium ATCC 700221) [µg/mL] | MIC (S. aureus ATCC 33591) [µg/mL] | MIC (P. aeruginosa ATCC 9027) [µg/mL] | MIC (C. glabrata ATCC 15126) [µg/mL] | SMILES | HC50 (hemolytic activity) [1] [µg/mL] |
| --- | --- | --- | --- | --- | --- |
| 8 (≈ 12.8 µM) | 8 (≈ 12.8 µM) | 64 (≈ 102 µM) | 32 (≈ 51 µM) | CCCCCCCCCCCCCC(=O)N[C@@H](CCCNC(=N)N)C(=O)N[C@@H](CO)C(=O)N[C@@H](CCCNC(=N)N)C(N)=O [Peptide 2, C14-RSR-NH2] (Myristoyl-Arg-Ser-Arg-NH2) | 186.64 ± 2.14 |
| 8 (≈ 12.8 µM) | 16 (≈ 25.5 µM) | 64 (≈ 102 µM) | 32 (≈ 51 µM) | CCCCCCCCCCCCCC(=O)N[C@@H](CCCNC(=N)N)C(=O)N[C@@H](CCCNC(=N)N)C(=O)N[C@@H](CO)C(N)=O [Peptide 3, C14-RRS-NH2] (Myristoyl-Arg-Arg-Ser-NH2) | 227.01 ± 5.69 |
| 8 (≈ 12.2 µM) | 8 (≈ 12.2 µM) | 16 (≈ 24.4 µM) | 4 (≈ 6.11 µM) | CCCCCCCCCCCCCCCC(=O)N[C@@H](CO)C(=O)N[C@@H](CCCNC(=N)N)C(=O)N[C@@H](CCCNC(=N)N)C(N)=O [Peptide 4, C16-SRR-NH2] (Palmitoyl-Ser-Arg-Arg-NH2) | 75.46 ± 0.73 |
| 8 (≈ 12.2 µM) | 8 (≈ 12.2 µM) | 64 (≈ 97.7 µM) | 8 (≈ 12.2 µM) | CCCCCCCCCCCCCCCC(=O)N[C@@H](CCCNC(=N)N)C(=O)N[C@@H](CO)C(=O)N[C@@H](CCCNC(=N)N)C(N)=O [Peptide 5, C16-RSR-NH2] (Palmitoyl-Arg-Ser-Arg-NH2) | 82.21 ± 2.07 |
| 8 (≈ 12.2 µM) | 8 (≈ 12.2 µM) | 16 (≈ 24.4 µM) | 8 (≈ 12.2 µM) | CCCCCCCCCCCCCCCC(=O)N[C@@H](CCCNC(=N)N)C(=O)N[C@@H](CCCNC(=N)N)C(=O)N[C@@H](CO)C(N)=O [Peptide 6, C16-RRS-NH2] (Palmitoyl-Arg-Arg-Ser-NH2) | 75.95 ± 1.57 |
| 32 (≈ 38.6 µM) | 64 (≈ 77.1 µM) | 256 (≈ 308 µM) | 256 (≈ 308 µM) | CCCCCCCCCCCCCC(=O)N[C@@H](CO[C@@H]1O[C@H](CO)[C@@H](O)[C@H](O)[C@H]1NC(C)=O)C(=O)N[C@@H](CCCNC(=N)N)C(=O)N[C@@H](CCCNC(=N)N)C(N)=O [Peptide 10, C14-S(GlcNAc)RR-NH2] (Myristoyl-Ser(βGlcNAc)-Arg-Arg-NH2) | >512 |
| 32 (≈ 38.6 µM) | 64 (≈ 77.1 µM) | 128 (≈ 154 µM) | 128 (≈ 154 µM) | CCCCCCCCCCCCCC(=O)N[C@@H](CCCNC(=N)N)C(=O)N[C@@H](CO[C@@H]1O[C@H](CO)[C@@H](O)[C@H](O)[C@H]1NC(C)=O)C(=O)N[C@@H](CCCNC(=N)N)C(N)=O [Peptide 11, C14-RS(GlcNAc)R-NH2] (Myristoyl-Arg-Ser(βGlcNAc)-Arg-NH2) | 364.17 ± 105.10 |
| 16 (≈ 19.3 µM) | 32 (≈ 38.6 µM) | 256 (≈ 308 µM) | 128 (≈ 154 µM) | CCCCCCCCCCCCCC(=O)N[C@@H](CCCNC(=N)N)C(=O)N[C@@H](CCCNC(=N)N)C(=O)N[C@@H](CO[C@@H]1O[C@H](CO)[C@@H](O)[C@H](O)[C@H]1NC(C)=O)C(N)=O [Peptide 12, C14-RRS(GlcNAc)-NH2] (Myristoyl-Arg-Arg-Ser(βGlcNAc)-NH2) | 345.72 ± 51.94 |
| 16 (≈ 18.6 µM) | 16 (≈ 18.6 µM) | 32 (≈ 37.3 µM) | 32 (≈ 37.3 µM) | CCCCCCCCCCCCCCCC(=O)N[C@@H](CO[C@@H]1O[C@H](CO)[C@@H](O)[C@H](O)[C@H]1NC(C)=O)C(=O)N[C@@H](CCCNC(=N)N)C(=O)N[C@@H](CCCNC(=N)N)C(N)=O [Peptide 13, C16-S(GlcNAc)RR-NH2] (Palmitoyl-Ser(βGlcNAc)-Arg-Arg-NH2) | 95.39 ± 2.40 |
